These results are taken from EP4635944A1, “2-AZABICYCLO[3.1.1]HEPTANE COMPOUND” (Daiichi Sankyo Company, Limited, priority 2022, dated 2024).

For one data set, the target named is T1, human OX2R (Homo sapiens, UniProt O43614).
T1 construct: host or cells: CHO-K1 (Chinese Hamster Ovary K1)
T1 sequence (O43614 1-444): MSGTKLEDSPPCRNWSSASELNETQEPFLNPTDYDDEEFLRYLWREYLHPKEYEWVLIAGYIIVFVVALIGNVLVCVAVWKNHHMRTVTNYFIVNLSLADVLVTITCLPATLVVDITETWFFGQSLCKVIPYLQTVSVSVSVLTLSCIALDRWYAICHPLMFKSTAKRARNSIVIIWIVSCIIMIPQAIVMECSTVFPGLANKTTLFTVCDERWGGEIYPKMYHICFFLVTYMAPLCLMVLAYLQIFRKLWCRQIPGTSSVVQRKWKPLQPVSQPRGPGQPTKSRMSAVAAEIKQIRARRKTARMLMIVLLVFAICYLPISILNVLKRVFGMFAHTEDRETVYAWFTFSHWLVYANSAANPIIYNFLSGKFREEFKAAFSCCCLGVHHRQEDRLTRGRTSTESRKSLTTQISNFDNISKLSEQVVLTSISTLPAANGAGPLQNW
Nature of the data set: Evaluation of OX2R agonist activity (intracellular calcium, CHO-K1 cells with forced expression of human OX2R). Type of data set: cell-based. The note with it: CHO-K1 cells expressing human OX2R; 100% = 5 µM of the reference compound; read-out: hOX2R EC50. The method, boiled down: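 Cells seeded 7500/well, cultured 24 h, loaded with Fluo 4-AM (2.5 µg/mL final) plus probenecid for 30 min. Calcium response read as 480/540 nm excitation ratio; max–min signal 5–7 s after compound addition, normalized to buffer (0%) and 5 µM reference agonist (100%). EC50 from concentration series; 0.5% DMSO final.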

The nature of data set [1]: Evaluation of metabolic stability in human liver microsomes. It counts as in vitro ADME. The note with it: for metabolic stability compared to the corresponding compounds that were not deuterated: human liver microsomes, 30 minutes, deuterated at specific positions; for Human metabolic stability Residual ratio (%): test compound 1 µM, human liver microsomes 0.5 mg/mL, 30 minutes at 37°C. As for the experimental part:
Evaluation of metabolic stability of OX2R agonist
The test compound (final concentration was 1 µM, dissolved in DMSO/acetonitrile = 1/99), pooled human liver microsomes (final concentration was 0.5 mg/mL), and sodium phosphate buffer (pH 7.4, final concentration was 100 mM) were admixed and preincubated at 37°C for 15 minutes. Thereafter, a mixed solution of glucose-6-phosphate (final concentration was 10 mM), glucose-6-phosphate dehydrogenase (final concentration was 1 U/mL), and magnesium chloride (final concentration was 3.3 mM) was added and a certain amount of the mixture was collected. Then, an acetonitrile/methanol mixed solution (75/25, v/v) containing a 4.5-fold volume of internal standard substances (final concentrations: phenacetin: 1 ng/mL, niflumic acid: 15 ng/mL, furosemide: 20 ng/mL) was added to stop the reaction (0 min sample). Subsequently, β-nicotinamide adenine dinucleotide phosphate (final concentration was 1 mM) was added, and after 30 minutes of incubation at 37°C, a certain amount of the mixture was collected, to which an acetonitrile/methanol mixed solution (75/25, v/v) containing a 4.5-fold volume of the internal standard substances was added to stop the reaction (30 min sample). For both samples, a portion of the supernatant after centrifugation (about 1200 × g, 4°C, 15 minutes) was injected into a liquid chromatograph tandem quadrupole mass spectrometer (LC-MS/MS) for analysis. The metabolic stability was evaluated by comparing the test compound/internal standard substance ratio of the 30 min sample with the 0 min sample and calculating the residual ratio of the test compound. […]
A general note: Liver microsomes are a subcellular fraction often used to study metabolism.

The term EC50 denotes the concentration at which the effect is half-maximal.

With `[2H][C@](C)(O)C(=O)N1C2CC(F)(C2)[C@H](NS(C)(=O)=O)[C@@H]1Cc1cc(F)cc(-c2ccccc2)c1F` [Example 100, N-{(3S,4R)-3-[(2,5-Difluoro[biphenyl]-3-yl)methyl]-5-fluoro-2-[(2R)-2-hydroxy(2-^2H)propanoyl]-2-azabicyclo[3.1.1]heptan-4-yl}methanesulfonamide], on human OX2R, the EC50 came to 0.043 µM. Also, in data set [1], the “metabolic stability compared to the corresponding compounds that were not deuterated” value is recorded as “improved metabolic stability” and the “Human metabolic stability Residual ratio (%)” value is reported as 70%.
`C[C@@H](O)C(=O)N1C2CC(F)(C2)[C@H](NS(C)(=O)=O)[C@@H]1Cc1cccc(-c2ccccc2)c1F` [Example 53, N-{(3S,4R)-5-Fluoro-3-[(2-fluoro[biphenyl]-3-yl)methyl]-2-[(2R)-2-hydroxypropanoyl]-2-azabicyclo[3.1.1]heptan-4-yl}methanesulfonamide]: the EC50 on human OX2R turned out to be 0.019 µM. Further, the “Human metabolic stability Residual ratio (%)” value in data set [1] amounted to 49%.
In the case of `C[C@@H](O)C(=O)N1C2CC(C2)[C@H](NS(C)(=O)=O)[C@@H]1Cc1cccc(-c2ccccc2)c1F` [Example 25, N-{(3S,4S)-3-[(2-Fluoro[biphenyl]-3-yl)methyl]-2-[(2R)-2-hydroxypropanoyl]-2-azabicyclo[3.1.1]heptan-4-yl}methanesulfonamide], the EC50 on human OX2R stood at 0.024 µM. Also, in data set [1], the “Human metabolic stability Residual ratio (%)” value is 34%.
As to `[2H]C([2H])([2H])C([2H])(O)C(=O)N1C2CC(F)(C2)C(NS(=O)(=O)CC)C1Cc1cc(F)cc(-c2ccccc2)c1F` (single isomer, unassigned) [Example 95, N-{3-[(2,5-Difluoro[biphenyl]-3-yl)methyl]-5-fluoro-2-[2-hydroxy(^2H4)propanoyl]-2-azabicyclo[3.1.1]heptan-4-yl}ethanesulfonamide], at human OX2R, the concentration for a half-maximal effect (EC50) turned out to be 0.019 µM. Moreover, in data set [1], the “metabolic stability compared to the corresponding compounds that were not deuterated” value is “improved metabolic stability” and the “Human metabolic stability Residual ratio (%)” value came out at 52%.
As for `C[C@@H](O)C(=O)N1C2CC(F)(C2)[C@H](NS(C)(=O)=O)[C@@H]1Cc1cc(F)cc(-c2ccccc2)c1F` [Example 63, N-{(3S,4R)-3-[(2,5-Difluoro[biphenyl]-3-yl)methyl]-5-fluoro-2-[(2R)-2-hydroxypropanoyl]-2-azabicyclo[3.1.1]heptan-4-yl}methanesulfonamide], the EC50 on human OX2R stood at 0.022 µM. The “Human metabolic stability Residual ratio (%)” value in data set [1] is given as 38%.
As to `[2H][C@](C)(O)C(=O)N1C2CC(F)(C2)[C@H](NS(C)(=O)=O)[C@@H]1Cc1cccc(-c2ccccc2)c1F` [Example 99, N-{(3S,4R)-5-Fluoro-3-[(2-fluoro[biphenyl]-3-yl)methyl]-2-[(2R)-2-hydroxy(2-^2H)propanoyl]-2-azabicyclo[3.1.1]heptan-4-yl}methanesulfonamide], on human OX2R, the EC50 was found to be 0.027 µM. Also, in data set [1], the “metabolic stability compared to the corresponding compounds that were not deuterated” value is recorded as “improved metabolic stability” and the “Human metabolic stability Residual ratio (%)” value stood at 78%.
Consider `CC(C)(O)C(=O)N1C2CC(F)(C2)[C@H](NS(C)(=O)=O)[C@@H]1Cc1cccc(-c2cccc(C(F)F)c2)c1F` [Example 49, N-[(3S,4R)-3-{[3'-(Difluoromethyl)-2-fluoro[biphenyl]-3-yl]methyl}-5-fluoro-2-(2-hydroxy-2-methylpropanoyl)-2-azabicyclo[3.1.1]heptan-4-yl]methanesulfonamide], for which the EC50 at human OX2R turned out to be 0.02 µM.
In the case of `CC(C)NC(=O)N1C2CC(C2)[C@H](NS(C)(=O)=O)[C@@H]1Cc1cccc(-c2cc(F)cc(F)c2)c1F` [Example 35, (3S,4S)-4-[(Methylsulfonyl)amino]-N-(propan-2-yl)-3-[(2,3',5'-trifluoro[biphenyl]-3-yl)methyl]-2-azabicyclo[3.1.1]heptane-2-carboxamide], on human OX2R, the EC50 was determined as 0.075 µM.
Take `C[C@@H](O)C(=O)N1C2CC(C2)[C@H](NS(C)(=O)=O)[C@@H]1Cc1cccc(-c2cccc(C(F)F)n2)c1F` [Example 47, N-{(3S,4S)-3-{3-[6-(Difluoromethyl)pyridin-2-yl]-2-fluorobenzyl}-2-[(2R)-2-hydroxypropanoyl]-2-azabicyclo[3.1.1]heptan-4-yl}methanesulfonamide]: the EC50 on human OX2R is 0.117 µM.
The same measure, in the same setting: as for `CC(C(=O)N1C2CC(C2)[C@H](NS(C)(=O)=O)[C@@H]1Cc1cccc(-c2ccccc2)c1F)n1cccn1` (stereo partly drawn) [Example 93, N-{(3S,4S)-3-[(2-Fluoro[biphenyl]-3-yl)methyl]-2-[2-(1H-pyrazol-1-yl)propanoyl]-2-azabicyclo[3.1.1]heptan-4-yl}methanesulfonamide], the figure is 0.023 µM.
On to `CCS(=O)(=O)NC1C2CC(C2)N(C(=O)N2CCC2)C1Cc1cccc(-c2cc(F)cc(F)c2)c1F` (single isomer, unassigned) [Example 9, N-{2-(Azetidin-1-ylcarbonyl)-3-[(2,3',5'-trifluoro[biphenyl]-3-yl)methyl]-2-azabicyclo[3.1.1]heptan-4-yl}ethanesulfonamide], for which the EC50 on human OX2R came out at 0.089 µM.
Take `[2H]c1c([2H])c([2H])c(-c2cccc(C[C@H]3[C@@H](NS(C)(=O)=O)C4CC(C4)N3C(=O)[C@@H](C)O)c2F)c([2H])c1[2H]` [Example 54, N-{(3S,4S)-3-{[2-Fluoro(2',3',4',5',6'-^2H5)[biphenyl]-3-yl]methyl}-2-[(2R)-2-hydroxypropanoyl]-2-azabicyclo[3.1.1]heptan-4-yl}methanesulfonamide]: the EC50 at human OX2R worked out at 0.022 µM.
Regarding `CCS(=O)(=O)NC1C2CC(C2)N(C(=O)N(C)C)C1Cc1cccc(-c2cc(F)cc(F)c2)c1F` (single isomer, unassigned) [Example 7, 4-[(Ethylsulfonyl)amino]-N,N-dimethyl-3-[(2,3',5'-trifluoro[biphenyl]-3-yl)methyl]-2-azabicyclo[3.1.1]heptane-2-carboxamide], at human OX2R, the EC50 was 0.213 µM.
For the compound `CC(C)(O)C(=O)N1C2CC(F)(C2)[C@H](NS(C)(=O)=O)[C@@H]1Cc1cccc(-c2ccccc2)c1F` [Example 50, N-[(3S,4R)-5-Fluoro-3-[(2-fluoro[biphenyl]-3-yl)methyl]-2-(2-hydroxy-2-methylpropanoyl)-2-azabicyclo[3.1.1]heptan-4-yl]methanesulfonamide], on human OX2R, the EC50 turned out to be 0.041 µM.
Consider `CNC(=O)N1C2CC(C2)[C@H](NS(C)(=O)=O)[C@@H]1Cc1cccc(-c2cc(F)cc(F)c2)c1F` [Example 27, (3S,4S)-N-Methyl-4-[(methylsulfonyl)amino]-3-[(2,3',5'-trifluoro[biphenyl]-3-yl)methyl]-2-azabicyclo[3.1.1]heptane-2-carboxamide], for which the EC50 on human OX2R worked out at 0.061 µM.
On to `CS(=O)(=O)N[C@H]1C2CC(C2)N(C(=O)[C@H]2C[C@@H]2F)[C@H]1Cc1cccc(-c2cc(F)cc(F)c2)c1F` [Example 29, N-{(3S,4S)-2-{[(1R,2S)-2-Fluorocyclopropyl]carbonyl}-3-[(2,3',5'-trifluoro[biphenyl]-3-yl)methyl]-2-azabicyclo[3.1.1]heptan-4-yl}methanesulfonamide], for which, on human OX2R, the EC50 came to 0.253 µM.
Regarding `CC(C)(O)C(=O)N1C2CC(C2)C(NS(=O)(=O)CF)C1Cc1cccc(-c2cc(F)cc(F)c2)c1F` (single isomer, unassigned) [Example 6, 1-Fluoro-N-{2-(2-hydroxy-2-methylpropanoyl)-3-[(2,3',5'-trifluoro[biphenyl]-3-yl)methyl]-2-azabicyclo[3.1.1]heptan-4-yl}methanesulfonamide], the EC50 on human OX2R worked out at 0.069 µM.
